Experiment [1] has as its target T1, HCV NS3/4A protease complex, J4L6S strain (Hepatitis C virus genotype 1b, UniProt O92972, C1454S/C1711G).
T1 construct: DNA encoding the recombinant HCV NS3/4A protease complex (amino acids 1027 to 1711) for these strains; inferred from pET21b vector and Ni-NTA purification; made in house; host or cells: Escherichia coli BL21 (DE3), pET21b
Nature of the experiment: FRET peptide assay to monitor HCV NS3/4A proteolytic activity (J4L6S strain). The note with it: read-out: IC50 against NS3/4A J4L6S strain. The experiment is classed as biochemical, HCV genotype 1b. The source says:
HCV NS3 protease complexes, derived from the BMS strain, H77 strain or J4L6S strain, were generated, as described below. These purified recombinant proteins were generated for use in a homogeneous assay (see below) to provide an indication of how effective compounds of the present disclosure would be in inhibiting HCV NS3 proteolytic activity.
The H77 and J4L6S strains were used for production of recombinant NS3/4A protease complexes. DNA encoding the recombinant HCV NS3/4A protease complex (amino acids 1027 to 1711) for these strains were manipulated as described by P. Gallinari et al. (see Gallinari P, Paolini C, Brennan D, Nardi C, Steinkuhler C, De Francesco R. Biochemistry. 38(17):5620-32, (1999)). Briefly, a three-lysine solubilizing tail was added at the 3′-end of the NS4A coding region. The cysteine in the P1 position of the NS4A-NS4B cleavage site (amino acid 1711) was changed to a glycine to avoid the proteolytic cleavage of the lysine tag. Furthermore, a cysteine to serine mutation was introduced by PCR at amino acid position 1454 to prevent the autolytic cleavage in the NS3 helicase domain. […]

Experiment [2] concerns HCV replicon (Renilla luciferase) in HUH-7 cells. Nature of the experiment: HCV replicon luciferase reporter assay. It counts as cell-based, HCV strain 1b. As to conditions: Huh-7, 96 h, 4 days. From the text: As a secondary assay, EC50 determinations from the replicon FRET assay were confirmed in a replicon luciferase reporter assay. Utilization of a replicon luciferase reporter assay was first described by Krieger et al (Krieger N, Lohmann V, and Bartenschlager R, J. Virol. 75(10):4614-4624 (2001)). The replicon construct described for our FRET assay was modified by inserting cDNA encoding a humanized form of the Renilla luciferase gene and a linker sequence fused directly to the 3′-end of the luciferase gene. This insert was introduced into the replicon construct using an Asc1 restriction site located in core, directly upstream of the neomycin marker gene. The adaptive mutation at position 1179 (serine to isoleucine) was also introduced (Blight K J, Kolykhalov, A A, Rice, C M, Science 290(5498):1972-1974). A stable cell line constitutively expressing this HCV replicon construct was generated as described above. The luciferase reporter assay was set up as described for the HCV replicon FRET assay with the following modifications. Following 4 days in a 37° C./5% CO2 incubator, cells were analyzed for Renilla Luciferase activity using the Promega Dual-Glo Luciferase Assay System. […] Plates were read on a Packard TopCount NXT using a luminescence program.
The percentage inhibition was calculated using the formula below: […]
The values were graphed and analyzed using XLfit to obtain the EC50 value.

pEC50, pIC50: −log10 of the molar value.

T1 sequence (O92972 1027-1711 C1454S/C1711G, one chain of several): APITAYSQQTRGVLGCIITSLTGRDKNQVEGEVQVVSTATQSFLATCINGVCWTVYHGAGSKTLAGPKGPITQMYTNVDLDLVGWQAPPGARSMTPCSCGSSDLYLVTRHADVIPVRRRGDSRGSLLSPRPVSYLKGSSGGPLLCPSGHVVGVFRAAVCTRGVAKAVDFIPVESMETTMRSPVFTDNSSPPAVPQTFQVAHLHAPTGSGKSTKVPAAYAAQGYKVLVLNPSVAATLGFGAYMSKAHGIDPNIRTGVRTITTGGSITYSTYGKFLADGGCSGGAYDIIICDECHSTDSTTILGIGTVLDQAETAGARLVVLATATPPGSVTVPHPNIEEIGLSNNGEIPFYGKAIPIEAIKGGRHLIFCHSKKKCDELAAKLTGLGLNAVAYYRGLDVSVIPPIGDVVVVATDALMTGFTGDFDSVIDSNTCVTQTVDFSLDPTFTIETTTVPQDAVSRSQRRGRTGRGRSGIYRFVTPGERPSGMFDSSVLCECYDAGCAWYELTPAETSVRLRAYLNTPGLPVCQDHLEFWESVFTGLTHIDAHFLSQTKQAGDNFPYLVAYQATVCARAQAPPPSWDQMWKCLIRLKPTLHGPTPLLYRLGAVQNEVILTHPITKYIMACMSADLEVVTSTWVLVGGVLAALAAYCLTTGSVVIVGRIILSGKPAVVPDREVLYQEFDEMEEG

One may read the pEC50 as the EC50 on a negative log10 scale, so that one unit is a factor of ten. Read a high pEC50 as a small EC50. With `C=C[C@@H]1C[C@]1(NC(=O)[C@@H]1C[C@@](O)(c2ccc(-c3ccccc3)cc2)CN1C(=O)[C@@H](NC(=O)OC(C)(C)C)C(C)(C)C)C(=O)NS(=O)(=O)C1CC1` [Compound 3], the pIC50 in experiment [1] was 9.05. In addition, the negative logarithm of the EC50 (pEC50) in experiment [2] is 7.85.

The values above are taken from patent US7592336B2, “Hepatitis C virus inhibitors” (Bristol-Myers Squibb Company, priority 2005, dated 2009).
